Counter-ions that a name gives are not always drawn.
Columns and labels:
Dopamine Receptor D4 [1] = target: T1, Dopamine Receptor D4 (Homo sapiens, UniProt P21917); assay: NIMH-PDSP binding affinity at dopamine receptor subtype D4; details: for D2/D4: ratio of Ki D2 to Ki D4
T1 sequence (P21917 1-419): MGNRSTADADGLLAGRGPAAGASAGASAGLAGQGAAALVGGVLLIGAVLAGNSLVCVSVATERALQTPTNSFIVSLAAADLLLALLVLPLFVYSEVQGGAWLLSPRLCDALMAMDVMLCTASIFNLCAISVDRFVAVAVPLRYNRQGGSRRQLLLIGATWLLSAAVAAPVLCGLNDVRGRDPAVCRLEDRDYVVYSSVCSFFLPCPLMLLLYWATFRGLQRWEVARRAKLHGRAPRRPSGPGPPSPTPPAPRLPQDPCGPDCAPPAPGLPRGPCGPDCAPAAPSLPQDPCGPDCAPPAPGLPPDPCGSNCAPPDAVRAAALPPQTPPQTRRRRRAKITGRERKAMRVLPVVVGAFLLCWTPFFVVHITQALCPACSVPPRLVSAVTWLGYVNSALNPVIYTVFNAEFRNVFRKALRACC

Dopamine Receptor D1 = Dopamine Receptor D1 (Homo sapiens, UniProt P21728); assay: NIMH-PDSP binding affinity at dopamine receptor subtype D1; details: for primary assay inhibition at D1: primary assay threshold
Dopamine Receptor D1, sequence (P21728 whole entry): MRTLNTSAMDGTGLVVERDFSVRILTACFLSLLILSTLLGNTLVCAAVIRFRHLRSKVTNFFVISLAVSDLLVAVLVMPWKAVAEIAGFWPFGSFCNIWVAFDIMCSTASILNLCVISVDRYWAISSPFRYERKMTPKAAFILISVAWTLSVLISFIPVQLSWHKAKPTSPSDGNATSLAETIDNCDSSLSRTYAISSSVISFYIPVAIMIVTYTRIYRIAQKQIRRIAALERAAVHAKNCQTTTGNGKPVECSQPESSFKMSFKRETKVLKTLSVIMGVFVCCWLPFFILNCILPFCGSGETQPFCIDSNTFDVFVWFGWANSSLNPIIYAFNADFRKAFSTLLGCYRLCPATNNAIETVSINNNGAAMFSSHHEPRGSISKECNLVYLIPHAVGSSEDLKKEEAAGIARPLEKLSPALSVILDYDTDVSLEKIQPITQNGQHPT

Dopamine Receptor D5 = Dopamine Receptor D5 (Homo sapiens, UniProt P21918); assay: NIMH-PDSP binding affinity at dopamine receptor subtype D5; details: for primary assay inhibition at D5: primary assay threshold
Dopamine Receptor D5, sequence (P21918 whole entry): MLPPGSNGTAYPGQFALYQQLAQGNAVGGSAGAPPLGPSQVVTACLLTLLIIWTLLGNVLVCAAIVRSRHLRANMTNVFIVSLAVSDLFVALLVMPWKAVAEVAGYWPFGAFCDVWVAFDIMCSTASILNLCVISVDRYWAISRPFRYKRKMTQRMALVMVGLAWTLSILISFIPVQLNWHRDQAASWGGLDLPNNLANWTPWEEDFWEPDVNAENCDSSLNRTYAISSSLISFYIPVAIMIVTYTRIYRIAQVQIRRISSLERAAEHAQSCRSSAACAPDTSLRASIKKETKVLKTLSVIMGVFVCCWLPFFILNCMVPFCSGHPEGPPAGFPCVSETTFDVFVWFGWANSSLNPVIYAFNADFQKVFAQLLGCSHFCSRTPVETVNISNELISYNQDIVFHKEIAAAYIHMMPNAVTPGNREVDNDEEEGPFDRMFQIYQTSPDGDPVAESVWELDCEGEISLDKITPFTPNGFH

Dopamine Receptor D4 [2] = target: T1, Dopamine Receptor D4; details: compounds 1-7, D2-like data; ref Previous publications from our lab; cited from earlier work
Dopamine Receptor D3 = Dopamine Receptor D3 (Homo sapiens, UniProt P35462); assay: NIMH-PDSP binding affinity at dopamine receptor subtype D3
Dopamine Receptor D3, sequence (P35462 whole entry): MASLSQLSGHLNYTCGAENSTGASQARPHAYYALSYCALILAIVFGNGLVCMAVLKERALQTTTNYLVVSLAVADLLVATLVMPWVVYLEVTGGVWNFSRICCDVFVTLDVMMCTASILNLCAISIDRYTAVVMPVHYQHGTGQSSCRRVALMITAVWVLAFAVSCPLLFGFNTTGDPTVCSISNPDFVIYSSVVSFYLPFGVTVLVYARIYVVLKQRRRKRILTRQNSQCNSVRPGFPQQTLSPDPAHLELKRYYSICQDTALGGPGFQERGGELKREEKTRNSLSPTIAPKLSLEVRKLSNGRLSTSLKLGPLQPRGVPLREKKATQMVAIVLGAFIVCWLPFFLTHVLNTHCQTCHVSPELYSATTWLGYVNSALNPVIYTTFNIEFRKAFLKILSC

Dopamine Receptor D2 = Dopamine Receptor D2 (Homo sapiens, UniProt P14416); assay: NIMH-PDSP binding affinity at dopamine receptor subtype D2; details: for primary assay inhibition at D2: primary assay threshold
Dopamine Receptor D2, sequence (P14416 whole entry): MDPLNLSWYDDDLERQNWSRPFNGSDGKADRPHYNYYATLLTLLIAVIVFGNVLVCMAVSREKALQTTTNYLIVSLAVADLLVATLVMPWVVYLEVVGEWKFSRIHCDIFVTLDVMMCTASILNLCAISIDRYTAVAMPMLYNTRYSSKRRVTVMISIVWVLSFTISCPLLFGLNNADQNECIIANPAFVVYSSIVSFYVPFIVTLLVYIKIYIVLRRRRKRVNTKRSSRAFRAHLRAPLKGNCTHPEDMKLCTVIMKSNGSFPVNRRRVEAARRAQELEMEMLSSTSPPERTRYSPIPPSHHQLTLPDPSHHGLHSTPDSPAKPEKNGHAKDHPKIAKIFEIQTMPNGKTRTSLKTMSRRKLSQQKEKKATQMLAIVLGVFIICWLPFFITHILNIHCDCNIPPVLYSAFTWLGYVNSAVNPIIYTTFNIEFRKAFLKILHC

| SMILES | D2/D4 (Dopamine Receptor D4 [1]) | primary assay inhibition at D1 (Dopamine Receptor D1) | primary assay inhibition at D5 (Dopamine Receptor D5) | also measured |
| --- | --- | --- | --- | --- |
| O=C(CCCN1CCN(c2ccc(Cl)cc2)CC1)c1ccc(F)cc1 [Compound 1] | 14.5 | – | – | D3/D4 (Dopamine Receptor D4 [1]; ratio of Ki D3 to Ki D4): 23.1 |
| [O-][S+](CCCN1CCN(c2ccc(Cl)cc2)CC1)c1ccc(F)cc1 (centres unmarked) [Compound 2] | – | MT (Missed primary assay threshold of 50% inhibition) | MT (Missed primary assay threshold of 50% inhibition) | pKi ±SEM at the Dopamine Receptor Subtype D4 (Dopamine Receptor D4 [2]): 7.89±0.05 |
| Clc1ccc(N2CCN(CCCOc3ccccc3)CC2)cc1 [Compound 6] | – | – | – | pKi ±SEM at the Dopamine Receptor Subtype D4 (Dopamine Receptor D4 [2]): 8.26±0.03 |
| O=C1c2ccc(F)cc2CC1CCN1CCN(c2ccc(Cl)cc2)CC1 (centres unmarked) [Compound 8, 2-(2-(4-(4-Chlorophenyl)piperazin-1-yl)ethyl)-5-fluoro-indan-1-one hydrochloride] | – | – | MT (Missed primary assay threshold of 50% inhibition) | – |
| O=C1c2ccccc2CC1CCN1CCN(c2ccc(Cl)cc2)CC1 (centres unmarked) [Compound 9, 2-{2-[4-(4-Chloro-phenyl)-piperazin-1-yl]-ethyl}-indan-1-one tosylate] | >277 | – | MT (Missed primary assay threshold of 50% inhibition) | – |
| Fc1ccc2c(c1)CC(CCN1CCN(c3ccc(Cl)cc3)CC1)C2 (centres unmarked) [Compound 10, 1-(4-Chlorophenyl)-4-(2-(5-fluoro-2,3-dihydro-1H-inden-2-yl)ethyl)piperazine dihydrochloride] | – | – | MT (Missed primary assay threshold of 50% inhibition) | – |
| Cc1ccc(N2CCN(CCCOc3ccc(F)cc3)CC2)nc1 [Compound 15a, 1-(3-(4-Fluorophenoxy)propyl)-4-(5-methylpyridin-2-yl)piperazine] | – | – | – | Ki (Dopamine Receptor D4 [1]; pKi ±SEM at the Dopamine Receptor Subtype D4): 1.1 nM |
| Cc1ccc(N2CCN(CCCSc3ccc(F)cc3)CC2)nc1 [Compound 15b, 1-(3-((4-Fluorophenyl)thio)propyl)-4-(5-methylpyridin-2-yl)piperazine] | – | – | – | pKi ±SEM at the Dopamine Receptor Subtype D3 (Dopamine Receptor D3): 6.8±0.1; pKi ±SEM at the Dopamine Receptor Subtype D2 (Dopamine Receptor D2): 6±0.1; pKi ±SEM at the Dopamine Receptor Subtype D5 (Dopamine Receptor D5): 5.7±0.1 |
| Fc1ccc(OCCCN2CCN(c3ncccn3)CC2)cc1 [Compound 16a] | – | – | MT (Missed primary assay threshold of 50% inhibition) | – |
| Clc1ccc(N2CCN(CCCCc3nc4ccccc4o3)CC2)cc1 [Compound 20, 2-(4-(4-(4-Chlorophenyl)piperazin-1-yl)butyl)benzo[d]oxazole] | >327 | MT (Missed primary assay threshold of 50% inhibition) | MT (Missed primary assay threshold of 50% inhibition) | primary assay inhibition at D2 (Dopamine Receptor D2): MT (Missed primary assay threshold of 50% inhibition) |
| Clc1ccc(N2CCN(CCc3nc4ccccc4o3)CC2)cc1 [Compound 22, 2-(2-(4-(4-Chlorophenyl)piperazin-1-yl)ethyl)benzo[d]oxazole] | >7.1 | MT (Missed primary assay threshold of 50% inhibition) | MT (Missed primary assay threshold of 50% inhibition) | primary assay inhibition at D2 (Dopamine Receptor D2): MT (Missed primary assay threshold of 50% inhibition) |
| Clc1ccc(N2CCN(CCc3cc4ccccc4o3)CC2)cc1 [Compound 23, 1-(2-(Benzofuran-2-yl)ethyl)-4-(4-chlorophenyl)piperazine] | – | MT (Missed primary assay threshold of 50% inhibition) | MT (Missed primary assay threshold of 50% inhibition) | primary assay inhibition at D3 (Dopamine Receptor D3; primary assay threshold): MT (Missed primary assay threshold of 50% inhibition); primary assay inhibition at D2 (Dopamine Receptor D2): MT (Missed primary assay threshold of 50% inhibition) |
| Clc1ccc(N2CCN(CCCc3cc4ccccc4o3)CC2)cc1 [Compound 24, 1-(3-(Benzofuran-2-yl)propyl)-4-(4-chlorophenyl)piperazine] | – | – | MT (Missed primary assay threshold of 50% inhibition) | – |
| Clc1ccc(N2CC3CC2CN3CCCc2cc3ccccc3o2)cc1 (centres unmarked) [Compound 25, 2-(3-(Benzofuran-2-yl)propyl)-5-(4-chlorophenyl)-2,5-diazabicyclo[2.2.1]heptane] | >4.2- | MT (Missed primary assay threshold of 50% inhibition) | MT (Missed primary assay threshold of 50% inhibition) | primary assay inhibition at D2 (Dopamine Receptor D2): MT (Missed primary assay threshold of 50% inhibition) |
| c1cnc(N2CCN(CCCCc3nc4ccccc4s3)CC2)nc1 [Compound 27] | – | MT (Missed primary assay threshold of 50% inhibition) | MT (Missed primary assay threshold of 50% inhibition) | – |
| c1cnc(N2CCN(CCCc3nc4ccccc4s3)CC2)nc1 [Compound 28, 2-(3-(4-(Pyrimidin-2-yl)piperazin-1-yl)propyl)benzo[d]thiazole trihydrobromide] | – | MT (Missed primary assay threshold of 50% inhibition) | MT (Missed primary assay threshold of 50% inhibition) | inhibition of the appropriate radioligand at D1 (Dopamine Receptor D1; other DA subtypes): less than 50%; inhibition of the appropriate radioligand at D5 (Dopamine Receptor D5; other DA subtypes): less than 50% |
